This passage reports DC50 results from US20230295197A1, “STAT5 and STAT6 Degraders and Uses Thereof” (REGENTS OF THE UNIVERSITY OF MICHICAN, priority 2022, published 2023).

Like-named read-outs stand apart in the source and are kept apart here.

One assay relates to STAT5. Description: Immunoblotting (Western blot) analysis of STAT5 degradation efficiency of degraders in treated cells. In kind it is cell-based. The method, boiled down: (§1)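 Degradation read by quantitative near-infrared Western blot: equal protein loads (20-40 μg) from compound-treated versus untreated cells, probed overnight at 4° C. for STAT5 or STAT6 with GAPDH reference. Compound concentrations and exposure times as indicated; cells grown in medium with 10% FBS at 37° C.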

The target in a further assay is T1, STAT6 (Homo sapiens, UniProt P42226).
T1 construct: endogenous in cells; host or cells: MOLM-16, KU-812, SKNO1, MB231, L1236
T1 sequence (P42226 1-847): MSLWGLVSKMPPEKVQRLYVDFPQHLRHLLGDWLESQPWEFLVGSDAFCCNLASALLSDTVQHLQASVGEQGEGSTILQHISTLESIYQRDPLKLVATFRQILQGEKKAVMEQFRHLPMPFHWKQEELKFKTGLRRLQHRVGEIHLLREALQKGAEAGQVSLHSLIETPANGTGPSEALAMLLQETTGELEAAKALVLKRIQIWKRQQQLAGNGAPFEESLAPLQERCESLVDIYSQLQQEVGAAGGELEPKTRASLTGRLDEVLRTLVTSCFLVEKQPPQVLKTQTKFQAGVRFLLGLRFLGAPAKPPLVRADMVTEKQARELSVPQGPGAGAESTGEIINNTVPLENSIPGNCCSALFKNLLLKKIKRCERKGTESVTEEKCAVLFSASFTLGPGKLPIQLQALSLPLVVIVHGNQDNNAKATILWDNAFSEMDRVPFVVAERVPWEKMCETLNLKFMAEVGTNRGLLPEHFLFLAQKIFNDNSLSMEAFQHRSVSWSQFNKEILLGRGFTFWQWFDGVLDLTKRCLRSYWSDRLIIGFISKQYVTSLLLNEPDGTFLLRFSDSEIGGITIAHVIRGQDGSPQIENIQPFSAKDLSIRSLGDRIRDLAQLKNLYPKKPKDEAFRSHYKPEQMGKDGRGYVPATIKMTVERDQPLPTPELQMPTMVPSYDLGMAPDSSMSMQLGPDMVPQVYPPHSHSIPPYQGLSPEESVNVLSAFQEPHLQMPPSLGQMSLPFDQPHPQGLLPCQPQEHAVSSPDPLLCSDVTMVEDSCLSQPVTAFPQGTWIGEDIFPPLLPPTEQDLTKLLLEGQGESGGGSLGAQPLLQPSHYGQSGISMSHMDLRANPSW
Description: Immunoblotting (Western blot) analysis of STAT6 degradation efficiency of degraders in treated cells. The conditions noted are these: MOLM-16 cells, numeric bound, read-out: DC50 S6 MOLM-16. In kind it is cell-based. Summed up: as §1

The mark [1] stands for this setting: MOLM-16 cells, numeric bound, read-out: DC50 S5 MOLM-16.

Regarding `CN(CCCC#Cc1cccc2c1CN(C1CCC(=O)NC1=O)C2=O)C(=O)CCN(C(=O)[C@@H]1CCCN1C(=O)[C@@H](NC(=O)c1cc2cc(C(F)(F)P(=O)(O)OCOC(=O)C(C)(C)C)ccc2s1)C(C)(C)C)c1ccc2ccoc2c1` (stereo partly drawn) [Compound 674, ((((2-(((2S)-1-((2S)-2-(benzofuran-6-yl(3-((5-(2-(2,6-dioxopiperidin-3-yl)-1-oxoisoindolin-4-yl)pent-4-yn-1-yl)(methyl)amino)-3-oxopropyl)carbamoyl)pyrrolidin-1-yl)-3,3-dimethyl-1-oxobutan-2-yl)carbamoyl)benzo[b]thiophen-5-yl)difluoromethyl)(hydroxy)phosphoryl)oxy)methyl pivalate], the DC50 in the assay with STAT5 (MOLM-16 cells, class symbols, read-out: DC50 S5 MOLM-16) was under 100 nM; on STAT6, over 300 nM.
On to `CC(C)(C)[C@H](NC(=O)c1cc2cc(C(F)(F)P(=O)(O)O)ccc2s1)C(=O)N1CCC[C@H]1C(=O)N(CCC(=O)NCCCC#Cc1cccc2c1CN(C1CCC(=O)NC1=O)C2=O)c1ccc(S(C)(=O)=O)cc1` (stereo partly drawn) [Compound 654, ((2-(((2S)-1-((2S)-2-((3-((5-(2-(2,6-dioxopiperidin-3-yl)-1-oxoisoindolin-4-yl)pent-4-yn-1-yl)amino)-3-oxopropyl)(4-(methylsulfonyl)phenyl)carbamoyl)pyrrolidin-1-yl)-3,3-dimethyl-1-oxobutan-2-yl)carbamoyl)benzo[b]thiophen-5-yl)difluoromethyl)phosphonic acid], for which the DC50 is over 300 nM in the assay on STAT5 (setting [1]); over 10000 nM in the assay on STAT5 (SKNO1 cells, read-out: DC50 S5 SKNO1); over 300 nM on STAT6.
For `CC(C)(C)[C@H](NC(=O)c1cc2cc(C(F)(F)P(=O)(O)O)ccc2s1)C(=O)N1CCC[C@H]1C(=O)N1C[C@@H](Oc2ccccc2)C[C@H]1C(=O)NCCCC#Cc1cccc2c1CN(C1CCC(=O)NC1=O)C2=O` (stereo partly drawn) [Compound 658, ((2-(((2S)-1-((2S)-2-((2S,4S)-2-((5-(2-(2,6-dioxopiperidin-3-yl)-1-oxoisoindolin-4-yl)pent-4-yn-1-yl)carbamoyl)-4-phenoxypyrrolidine-1-carbonyl)pyrrolidin-1-yl)-3,3-dimethyl-1-oxobutan-2-yl)carbamoyl)benzo[b]thiophen-5-yl)difluoromethyl)phosphonic acid], the DC50 with STAT5 (setting [1]) and at STAT6 was over 300 nM in each case.
For `Cc1ncsc1-c1ccc([C@H](CC(=O)NCCOCCOCCC(=O)N[C@@H]2C[C@@H](C(=O)Nc3ncc(-c4ccccc4)s3)N(C(=O)[C@@H](NC(=O)c3cc4cc(C(F)(F)P(=O)(O)O)ccc4s3)C(C)(C)C)C2)NC(=O)[C@@H]2C[C@@H](O)CN2C(=O)[C@@H](NC(=O)C2(F)CC2)C(C)(C)C)cc1` [Compound 581, (difluoro(2-(((S)-1-((2S,4R)-4-((S)-1-((2S,4R)-1-((S)-2-(1-fluorocyclopropane-1-carboxamido)-3,3-dimethylbutanoyl)-4-hydroxypyrrolidin-2-yl)-3-(4-(4-methylthiazol-5-yl)phenyl)-1,5-dioxo-9,12-dioxa-2,6-diazapentadecan-15-amido)-2-((5-phenylthiazol-2-yl)carbamoyl)pyrrolidin-1-yl)-3,3-dimethyl-1-oxobutan-2-yl)carbamoyl)benzo[b]thiophen-5-yl)methyl)phosphonic acid], the DC50 in the assay with STAT5 (setting [1]) and at STAT6 was over 300 nM throughout.
For `Cc1ncsc1-c1ccc([C@H](CC(=O)NCCCCCCCC(=O)N[C@@H]2C[C@@H](C(=O)Nc3ncc(-c4ccccc4)s3)N(C(=O)[C@@H](NC(=O)c3cc4cc(C(F)(F)P(=O)(O)O)ccc4s3)C(C)(C)C)C2)NC(=O)[C@@H]2C[C@@H](O)CN2C(=O)[C@@H](NC(=O)C2(F)CC2)C(C)(C)C)cc1` [Compound 577, (difluoro(2-(((S)-1-((2S,4R)-4-(8-((S)-3-((2S,4R)-1-((S)-2-(1-fluorocyclopropane-1-carboxamido)-3,3-dimethylbutanoyl)-4-hydroxypyrrolidine-2-carboxamido)-3-(4-(4-methylthiazol-5-yl)phenyl)propanamido)octanamido)-2-((5-phenylthiazol-2-yl)carbamoyl)pyrrolidin-1-yl)-3,3-dimethyl-1-oxobutan-2-yl)carbamoyl)benzo[b]thiophen-5-yl)methyl)phosphonic acid], the DC50 in the assay on STAT5 (setting [1]) and on STAT6 was over 300 nM each time.
